How the values were obtained:
[1] = system: sugar beet mutant line carrying W569L; conditions: WO 2012/049268; cited from earlier work
[2] = system: homozygous BvALS_D371E mutants; format: in vivo, Beta vulgaris (sugar beet); conditions: greenhouse, 1× recommended field application concentration, treated when first true leaves appeared, rated 14 days after treatment; growing of first pair of true leaves as indicator
Excerpt: (§1) The identified ALS mutants have been tested repeatedly in CONVISO® ONE treatments in concentrations used for field treatments as well as in treatment with the individual active ingredients of CONVISO® ONE, Foramsulfuron and Thiencarbazon-methyl, treatment with Pulsar® 40 (active ingredient: Imazamox), treatment with active ingredient Bispyribac, and treatment with Broadway® (active ingredients: Florasulam, Pyroxylam) (Table 1). All herbicide treatments has been conducted with amount corresponding to 1× recommended field application concentration: Offspring seed of both, a plant homozygous and heterozygous for BvALS_D371E mutation as well as the M0-background genotype were sown, cultivated in a greenhouse and transplanted to single pots after emergence. Herbicide treatments were performed when first true leaves appeared.
(§2) Tolerance ratings were taken 14 days after treatment. Growing of the first pair of true leaves was used as indicator for herbicide tolerance.

[3] = system: heterozygous BvALS_D371E mutants; format: in vivo, Beta vulgaris (sugar beet); conditions: greenhouse, 1× recommended field application concentration, treated when first true leaves appeared, rated 14 days after treatment; growing of first pair of true leaves as indicator
Excerpt: as §1, §2

Structure (SMILES) | herbicide tolerance of W569L mutant line [1] | Herbicide tolerance, Homozygous mutants [2] | Herbicide tolerance, Heterozygous mutants [3]
COC(=O)c1csc(C)c1S(=O)(=O)NC(=O)n1nc(OC)n(C)c1=O [thiencarbazone-methyl] | tolerant | Tolerant | tolerant
COc1cc(OC)nc(Oc2cccc(Oc3nc(OC)cc(OC)n3)c2C(=O)O)n1 [Bispyribac] |  | Tolerant | tolerant
COc1cc(OC)nc(NC(=O)NS(=O)(=O)c2cc(NC=O)ccc2C(=O)N(C)C)n1 [foramsulfuron] | tolerant | Tolerant | tolerant
